Assay results reported in BindingDB's records for doi:10.1021/jm0704651 (University of Turin, 2007).

Target: T1, Lanosterol synthase (Homo sapiens, UniProt P48449)
T1 sequence (P48449 whole entry): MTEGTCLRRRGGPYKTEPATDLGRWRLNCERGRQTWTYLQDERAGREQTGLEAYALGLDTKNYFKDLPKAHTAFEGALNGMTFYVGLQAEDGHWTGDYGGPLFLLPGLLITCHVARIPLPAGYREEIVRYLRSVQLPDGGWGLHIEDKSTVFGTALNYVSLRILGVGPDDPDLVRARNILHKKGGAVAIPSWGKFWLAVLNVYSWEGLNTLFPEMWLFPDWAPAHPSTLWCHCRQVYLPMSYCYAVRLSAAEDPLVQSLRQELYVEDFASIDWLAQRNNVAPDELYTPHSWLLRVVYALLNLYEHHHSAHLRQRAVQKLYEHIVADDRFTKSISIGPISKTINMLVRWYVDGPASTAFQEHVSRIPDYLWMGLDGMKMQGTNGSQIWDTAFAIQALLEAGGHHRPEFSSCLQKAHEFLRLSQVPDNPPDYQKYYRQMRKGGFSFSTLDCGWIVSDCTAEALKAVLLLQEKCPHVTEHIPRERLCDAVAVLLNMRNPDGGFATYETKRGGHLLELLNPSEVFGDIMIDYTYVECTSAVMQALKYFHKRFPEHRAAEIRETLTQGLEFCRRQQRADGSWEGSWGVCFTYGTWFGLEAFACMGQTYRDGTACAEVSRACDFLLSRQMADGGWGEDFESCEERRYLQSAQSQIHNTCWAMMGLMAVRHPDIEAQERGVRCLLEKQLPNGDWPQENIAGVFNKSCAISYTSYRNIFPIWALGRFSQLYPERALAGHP
Test: Inhibition of oxidosqualene cyclase

C=CCN(C)CCCCCCOc1ccc2c(-c3ccc(Br)cc3)nn(C)c2c1
IC50: 19 nM
